Results reported in patent US6479435B1, “Diaryl ethers and processes for their preparation and herbicidal and desiccant compositions containing them” (ISK Americas Incorporated, priority 1997, dated 2002).

Columns and labels:
Type in all cases: in vivo
[1] = tested on: Johnsongrass (Sorghum halepense, SORHA); test: Pre-emerge greenhouse herbicide test, phytotoxicity rating; details: 1000 g ai/ha, 14 days after application, rating scale 0-100
From the text: (§1) A standard greenhouse herbicide activity screening system was used to evaluate the herbicidal efficacy and crop safety of these test compounds. Six broadleaf weed species including redroot pigweed (Amaranthus retroflexus, AMARE), velvetleaf (Abutilon theophrasti, ABUTH), sicklepod (Cassia obtusifolia, CASOB), ivyleaf morningglory (Ipomoea hederacea, IPOHE), lambsquarters (Chenopodium album, CHEAL) and common ragweed (Ambrosia artemisiifolia L., AMBEL) were used as test species. Four grass weed species including green foxtail (Setaria viridis, SETVI), barnyardgrass (Echinochloa crusgalli, ECHCG), Johnsongrass (Sorghum halepense, SORHA), and large crabgrass (Digitaria sanguinalis, DIGSA) were also used. In addition, three crop species, field corn (Zea mays L., var. Dekalb 535, CORN), soybean (Glycine max L., var. Pella 86, SOY), and upland rice (Oryza sp., var.Tebonnet, RICE) were included.
(§2) All plants were grown in 10 cm square plastic pots which were filled with a sandy loam soil mix. For preemerge tests, seeds were planted one day prior to application of the test compounds. Immediately after application, test units of the pre-emerge applications were watered at the soil surface to incorporate the test materials. Subsequently, these test units were bottom-watered.
(§3) All test compounds were dissolved in acetone and applied to the test units in a volume of 187 l/ha. Test materials were applied at rates ranging from 125 g ai/ha to 1000 g ai/ha using a track sprayer equipped with a TJ8001E even flow flat fan spray nozzle. Plants were arranged on a shelf so that the top of the canopy (post-emerge) or top of the soil surface (pre-emerge) was 40-45 cm below the nozzle. Pressurized air was used to force the test solution through the nozzle as it was mechanically advanced (via electrically driven chain drive) over the top of all test plants/pots. This application simulates a typical commercial field herbicide application.
(§4) At 14 days after application of the test materials, phytotoxicity ratings were recorded. A rating scale of 0-100 was used as previously described in Research Methods in Weed Science, 2nd edition, B. Truelove, Ed., Southern Weed Science Society, Auburn University, Auburn, Ala., 1977. Briefly, “0” corresponds to no damage and “100” corresponds to complete death of all plants in the test unit. This scale was used both to determine efficacy against weed species and damage to crop species. Herbicide activity data for various compounds of this invention, which are shown by compound number in Tables 1-9, are shown in Tables 13 and 14.

[2] = tested on: barnyardgrass (Echinochloa crusgalli, ECHCG); test: as above; details: 1000 g ai/ha, 14 days after application, rating scale 0-100
From the text: as §1, §2, §3, §4

[3] = tested on: green foxtail (Setaria viridis, SETVI); test: as above; details: 1000 g ai/ha, 14 days after application, rating scale 0-100
From the text: as §1, §2, §3, §4

[4] = tested on: ivyleaf morningglory (Ipomoea hederacea, IPOHE); test: as above; details: 1000 g ai/ha, 14 days after application, rating scale 0-100
From the text: as §1, §2, §3, §4

[5] = tested on: lambsquarters (Chenopodium album, CHEAL); test: as above; details: 1000 g ai/ha, 14 days after application, rating scale 0-100
From the text: as §1, §2, §3, §4

[6] = tested on: large crabgrass (Digitaria sanguinalis, DIGSA); test: as above; details: 1000 g ai/ha, 14 days after application, rating scale 0-100
From the text: as §1, §2, §3, §4

[7] = tested on: redroot pigweed (Amaranthus retroflexus, AMARE); test: as above; details: 1000 g ai/ha, 14 days after application, rating scale 0-100
From the text: as §1, §2, §3, §4

[8] = tested on: sicklepod (Cassia obtusifolia, CASOB); test: as above; details: 1000 g ai/ha, 14 days after application, rating scale 0-100
From the text: as §1, §2, §3, §4

[9] = tested on: velvetleaf (Abutilon theophrasti, ABUTH); test: as above; details: 1000 g ai/ha, 14 days after application, rating scale 0-100
From the text: as §1, §2, §3, §4

[10] = tested on: field corn (Zea mays L., var. Dekalb 535, CORN); test: Pre-emerge greenhouse test, crop damage rating; details: 1000 g ai/ha, 14 days after application, rating scale 0-100
From the text: as §1, §2, §3, §4

[11] = tested on: upland rice (Oryza sp., var.Tebonnet, RICE); test: Pre-emerge greenhouse test, crop damage rating; details: 1000 g ai/ha, 14 days after application, rating scale 0-100
From the text: as §1, §2, §3, §4

[12] = tested on: soybean (Glycine max L., var. Pella 86, SOY); test: Pre-emerge greenhouse test, crop damage rating; details: 1000 g ai/ha, 14 days after application, rating scale 0-100
From the text: as §1, §2, §3, §4

[13] = tested on: Johnsongrass (Sorghum halepense, SORHA); test: Post-emerge greenhouse herbicide test, phytotoxicity rating; details: 1000 g al/ha, 14 days after application
From the text: as §1, §3
(§5) In the post-emerge test, a commercial non-ionic surfactant was also included (0.25% v/v) to enhance wetting of the leaf surfaces Qf target plants at rates ranging from 63 g ai/ha to 1000 g ai/ha. For post-emerge tests, seeds were planted 8-21 days prior to the test to allow emergence and good foliage development prior to application of the test substances. At the time of the post-emerge application, plants of all species were usually at the 2-3 leaf stage of development. Post-emerge test units were always bottom-watered.
as §4

[14] = tested on: barnyardgrass (Echinochloa crusgalli, ECHCG); test: as above; details: 1000 g al/ha, 14 days after application
From the text: as §1, §3, §5, §4

[15] = tested on: green foxtail (Setaria viridis, SETVI); test: as above; details: 1000 g al/ha, 14 days after application
From the text: as §1, §3, §5, §4

[16] = tested on: ivyleaf morningglory (Ipomoea hederacea, IPOHE); test: as above; details: 1000 g al/ha, 14 days after application
From the text: as §1, §3, §5, §4

[17] = tested on: lambsquarters (Chenopodium album, CHEAL); test: as above; details: 1000 g al/ha, 14 days after application
From the text: as §1, §3, §5, §4

[18] = tested on: large crabgrass (Digitaria sanguinalis, DIGSA); test: as above; details: 1000 g al/ha, 14 days after application
From the text: as §1, §3, §5, §4

[19] = tested on: redroot pigweed (Amaranthus retroflexus, AMARE); test: as above; details: 1000 g al/ha, 14 days after application
From the text: as §1, §3, §5, §4

[20] = tested on: sicklepod (Cassia obtusifolia, CASOB); test: as above; details: 1000 g al/ha, 14 days after application
From the text: as §1, §3, §5, §4

[21] = tested on: velvetleaf (Abutilon theophrasti, ABUTH); test: as above; details: 1000 g al/ha, 14 days after application
From the text: as §1, §3, §5, §4

[22] = tested on: field corn (Zea mays L., var. Dekalb 535, CORN); test: Post-emerge greenhouse test, crop damage rating; details: 1000 g al/ha, 14 days after application
From the text: as §1, §3, §5, §4

[23] = tested on: upland rice (Oryza sp., var.Tebonnet, RICE); test: Post-emerge greenhouse test, crop damage rating; details: 1000 g al/ha, 14 days after application
From the text: as §1, §3, §5, §4

[24] = tested on: soybean (Glycine max L., var. Pella 86, SOY); test: Post-emerge greenhouse test, crop damage rating; details: 1000 g al/ha, 14 days after application
From the text: as §1, §3, §5, §4

| Compound | phytotoxicity rating SORHA [1] | phytotoxicity rating ECHCG [2] | phytotoxicity rating SETVI [3] | phytotoxicity rating IPOHE [4] | phytotoxicity rating CHEAL [5] | phytotoxicity rating DIGSA [6] | phytotoxicity rating AMARE [7] | phytotoxicity rating CASOB [8] | phytotoxicity rating ABUTH [9] | crop damage rating CORN [10] | crop damage rating RICE [11] | crop damage rating SOY [12] | SORHA phytotoxicity rating (0-100) [13] | ECHCG phytotoxicity rating (0-100) [14] | SETVI phytotoxicity rating (0-100) [15] | IPOHE phytotoxicity rating (0-100) [16] | CHEAL phytotoxicity rating (0-100) [17] | DIGSA phytotoxicity rating (0-100) [18] | AMARE phytotoxicity rating (0-100) [19] | CASOB phytotoxicity rating (0-100) [20] | also measured |
| --- | --- | --- | --- | --- | --- | --- | --- | --- | --- | --- | --- | --- | --- | --- | --- | --- | --- | --- | --- | --- | --- |
| CCOC(=O)C(C)Oc1ccc(Oc2cc(-n3c(=O)cc4n(c3=O)CCC4)c(F)cc2Cl)cc1 (stereo not drawn) [Compound 5-6] | 50 | 70 | 100 | 100 | 100 | 70 | 100 | 40 | 100 | 40 | 80 | 60 | 95 | 95 | 50 | 100 | 100 | 40 | 90 | 40 | ABUTH phytotoxicity rating (0-100) [21]: 100; CORN crop damage rating (0-100) [22]: 80; RICE crop damage rating (0-100) [23]: 60; SOY crop damage rating (0-100) [24]: 80 |
| O=c1cc2n(c(=O)n1-c1cc(Oc3ncccc3[N+](=O)[O-])c(Cl)cc1F)CCC2 [Compound 5-8] | 95 | 85 | 95 | 80 | 100 | 100 | 100 | 0 | 100 | 15 | 50 | 50 | 0 | 0 | 10 | 80 | 60 | 0 | 40 | 30 | ABUTH phytotoxicity rating (0-100) [21]: 100; CORN crop damage rating (0-100) [22]: 0; RICE crop damage rating (0-100) [23]: 0; SOY crop damage rating (0-100) [24]: 20 |
